Laboratory results published in PubChem BioAssay (NCI).
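These data come from cells grown in 96-well plates and exposed to compound for 48 hours at five concentrations. GI50: concentration for 50% inhibition of growth. Definition used: TGI = concentration required for complete inhibition of growth.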

Legend:
Assay in all cases: NCI anticancer screen, dose series, 48 h
[1] = tested on: M19-MEL melanoma
[2] = tested on: HOP-18 NSCLC
[3] = tested on: SNB-78 CNS
[4] = tested on: XF 498 CNS
[5] = tested on: LXFL 529 NSCLC
[6] = tested on: PC-3 prostate
[7] = tested on: NCI/ADR-RES ovarian
[8] = tested on: DU-145 prostate
[9] = tested on: MDA-MB-231 breast
[10] = tested on: MCF7 breast

Row | Structure (SMILES) | TGI [1] [µM] | TGI [2] [µM] | TGI [3] [µM] | TGI [4] [µM] | TGI [5] [µM] | further results
1 | C/C(=N\NS(=O)(=O)c1ccccc1)c1ccc(Cl)c(Cl)c1 | > 100 | > 100 | > 100 | > 100 | > 100 | –
2 | O=C(COc1ccc2c(=O)cc(-c3ccccc3)oc2c1)N1CCN(c2ccccc2)CC1 | > 100 | > 100 | > 100 | – | > 100 | –
3 | CN(C)C(=O)OC(Cn1cncn1)c1ccc(Cl)cc1Cl (centres undefined) | > 100 | > 100 | > 100 | – | > 100 | –
4 | Cc1ccc(C(=O)c2nnc(C(=O)c3ccc(C)cc3)nn2)cc1 | 61.5 | > 100 | > 100 | – | > 100 | –
5 | Cc1csc(=S)n1OC(=O)NC1CCCCC1 | > 56.6 | – | > 100 | > 100 | > 24 | –
6 | Cc1cc(N(CCC#N)CCC#N)ccc1N=Nc1cccc(C(=O)O)c1 | > 100 | > 100 | > 100 | > 100 | > 100 | –
7 | COc1ccc(C2=Nc3ccccc3NC(=O)C2)cc1 | > 100 | > 100 | 70 | 36.8 | > 100 | –
8 | Nn1c(NNC(=O)C(=O)Nc2cc(Cl)c(Cl)cc2Cl)n[nH]c1=S | > 100 | > 100 | > 100 | > 100 | > 100 | –
9 | Cc1ccc(N=Cc2ccc3c(c2)OCO3)cc1C | > 100 | > 100 | > 100 | > 100 | > 100 | –
10 | O=C(N/C(=C\c1ccc2c(c1)OCO2)c1nc2ccccc2[nH]1)c1ccccc1 | 19.8 | > 100 | > 95.9 | 34 | 97.4 | –
11 | COC(=O)C(=O)C1(CCC(C)=O)c2ccccc2-c2c(C)ccc(C)c21 (centres undefined) | > 100 | > 100 | 78.5 | – | > 100 | –
12 | COc1cc(C(=O)C/C(CCCC(=O)Nc2ccccc2[N+](=O)[O-])=N/NC(=O)c2cc3ccccc3cc2O)ccc1O | – | > 100 | > 100 | > 100 | – | –
13 | CCCC(=O)OC1C(C(O)CO)OC2OC(C)(C)OC21 (centres undefined) | > 100 | > 100 | > 100 | > 100 | – | TGI [6]: > 100 µM; TGI [7]: > 100 µM; TGI [8]: > 100 µM; TGI [9]: > 100 µM; TGI [10]: > 100 µM
14 | C=CCC[CH2][Sn]([c]1ccccc1)([c]1ccccc1)[c]1ccccc1 | 4.49 | 4.51 | 4.83 | 3.55 | 2.63 | GI50 [1]: 2.17 µM; GI50 [2]: 2.59 µM; GI50 [3]: 1.73 µM; GI50 [4]: 2.08 µM; GI50 [5]: 1.35 µM
15 | O=C1[C@H]2ON(c3ccccc3)C(c3ccccc3Cl)[C@H]2C(=O)N1c1ccc(Cc2ccc(N3C(=O)[C@@H]4ON(c5ccccc5)C(c5ccccc5Cl)[C@@H]4C3=O)cc2)cc1 (some centres undefined) | > 100 | > 100 | > 100 | – | > 100 | –
16 | CC(=O)OCC1OC(OC2C(CSC3OC(COC(C)=O)C(OC(C)=O)C(OC(C)=O)C3OC(C)=O)OC(OC(C)=O)C(OC(C)=O)C2OC(C)=O)C(OC(C)=O)C(OC(C)=O)C1OC(C)=O (centres undefined) | > 100 | – | > 100 | > 100 | > 100 | –
17 | CC1SC2=NC3=C(c4ccccc4C3=O)C(c3ccc(F)cc3)N2C1=O (centres undefined) | > 100 | – | – | > 100 | > 100 | –

Row | Structure (SMILES) | TGI [1] [µM] | TGI [2] [µM] | TGI [3] [µM] | TGI [4] [µM] | TGI [5] [µM] | further results
18 | N#C/C(=C\c1ccc(O)c(O)c1)C(N)=S | > 100 | > 100 | > 100 | > 100 | > 100 | –
19 | CCOc1ccc(NC(=O)C(=O)CC(=O)C2=C(C)Nc3ccccc3S2)cc1 | > 50 | > 50 | – | > 50 | – | –
20 | CC1(C)C(=NNC(=O)C[N+](C)(C)C)C(C)(C)C1=NNC(=O)C[N+](C)(C)C | > 100 | > 100 | > 100 | > 100 | > 100 | –
21 | O=[N+]([O-])C1C2C=CC(C2)[C@H]1c1ccco1 (some centres undefined) | > 100 | – | > 100 | > 100 | > 100 | –
22 | CCc1ccccc1NC(=O)C(=O)CC(=O)c1sc(Nc2ccccc2)nc1C | > 100 | > 100 | > 100 | > 100 | > 100 | –
23 | COc1ccc(OC)c(NC(=O)C2=C(C)NC(C)=C(C(=O)Nc3cc(OC)ccc3OC)C2c2ccccc2)c1 | > 100 | > 100 | > 100 | – | > 100 | –
24 | CSc1ccc(C2OC(=O)c3ccccc32)c2ccccc12 (centres undefined) | > 100 | > 100 | > 100 | > 100 | > 100 | –
25 | CC1C=C(OC(=O)c2ccccc2)C(=O)C(n2cc(F)c(=O)[nH]c2=O)O1 (centres undefined) | > 100 | > 100 | > 100 | > 100 | > 100 | –
26 | COc1cc(OC)c2c(c1)C(=O)C(CC(C)O)=CC2=O (centres undefined) | 11.4 | 30.4 | 32 | 27 | 26.1 | –
27 | CCCCCCCCCCCC(=O)OCC1OC(n2cc(F)c(=O)[nH]c2=O)C(NC(=O)OCc2ccccc2)C(OC(=O)CCCCCCCCCCC)C1O (centres undefined) | > 100 | > 100 | > 100 | > 100 | > 100 | –
28 | COc1ccc2nc(-c3cccs3)cc(C(O)CN3CCSCC3)c2c1 (centres undefined) | 58.6 | 54.7 | – | 32.1 | 91.8 | –
29 | C=CC/C=C/Cc1csc(C(C)(C)C(O)C/C=C/C(=C)CCNC(=O)OC)n1 (centres undefined) | > 100 | – | – | > 100 | > 100 | TGI [6]: > 100 µM; TGI [7]: > 100 µM; TGI [8]: > 100 µM; TGI [10]: > 100 µM
30 | CCOC(=O)COc1ccccc1/C=C1\CCC(CN(C)C)C1=O (centres undefined) | 8.98 | 37.9 | 62.6 | – | 6.36 | TGI [7]: > 44 µM; TGI [10]: 19.8 µM
31 | CC1=C(C)C(=O)c2c(cc3ccccn23)C1=O | 4.42 | 68.2 | 77.5 | – | 28.6 | –
32 | CC1=Nc2ccccc2S/C1=C(/C)NNC(=O)C(N)=O | > 100 | > 100 | > 100 | > 100 | > 100 | –
33 | Cc1ccc(NC(=O)C(=O)C(C#N)c2ccccc2C)cc1C (centres undefined) | – | > 100 | > 100 | > 100 | > 100 | –
34 | C#CCOCn1cnc2c(Cl)ncnc21 | > 100 | > 100 | > 100 | > 100 | > 100 | –
